Measurements as given in ChEMBL document CHEMBL5325400 (Eur J Med Chem, 2023).
pIC50: −log10 of the molar value. Active and inactive are the calls of the source. The calls are words filed in the database; no cut-off is given here.

Assays:
SK-OV-3 = experiment: Antiproliferative activity against human SK-OV-3 cells assessed as inhibition of cell growth measured after 48 hrs by MTT assay; format: functional, cell-based; details: SK-OV-3, 48 h
HepG2 = experiment: Antiproliferative activity against human HepG2 cells assessed as inhibition of cell growth measured after 48 hrs by MTT assay; format: functional, cell-based; details: HepG2, 48 h
MDA-MB-231 = experiment: Antiproliferative activity against human MDA-MB-231 cells assessed as inhibition of cell growth measured after 48 hrs by MTT assay; format: functional, cell-based; details: MDA-MB-231, 48 h
HeLa = experiment: Antiproliferative activity against human HeLa cells assessed as inhibition of cell growth measured after 48 hrs by MTT assay; format: functional, cell-based
B16-F10 = experiment: Antiproliferative activity against mouse B16-F10 cells assessed as inhibition of cell growth measured after 48 hrs by MTT assay; format: functional, cell-based; details: B16-F10, 48 h
A2780/Taxol = experiment: Antiproliferative activity against paclitaxel resistant human A2780/Taxol cells assessed as inhibition of cell growth incubated for 48 hrs by MTT assay; format: functional, cell-based
A2780 = experiment: cells; details: Homo sapiens, A2780, 48 h
Description: Antiproliferative activity against human A2780 cells assessed as inhibition of cell growth incubated for 48 hrs by MTT assay

A549 [1] = experiment: Antiproliferative activity against human A549 cells assessed as inhibition of cell growth measured after 48 hrs by MTT assay; format: functional, cell-based; details: A549, 48 h
Tubulin (Sus scrofa) = Tubulin (Sus scrofa) (UniProt P02554+P02550); experiment: Inhibition of porcine brain tubulin polymerization at 10 uM measured at 1 min interval for 60 mins by fluorescence based analysis
Sequence of Tubulin (Sus scrofa) (P02550 whole entry, looked up): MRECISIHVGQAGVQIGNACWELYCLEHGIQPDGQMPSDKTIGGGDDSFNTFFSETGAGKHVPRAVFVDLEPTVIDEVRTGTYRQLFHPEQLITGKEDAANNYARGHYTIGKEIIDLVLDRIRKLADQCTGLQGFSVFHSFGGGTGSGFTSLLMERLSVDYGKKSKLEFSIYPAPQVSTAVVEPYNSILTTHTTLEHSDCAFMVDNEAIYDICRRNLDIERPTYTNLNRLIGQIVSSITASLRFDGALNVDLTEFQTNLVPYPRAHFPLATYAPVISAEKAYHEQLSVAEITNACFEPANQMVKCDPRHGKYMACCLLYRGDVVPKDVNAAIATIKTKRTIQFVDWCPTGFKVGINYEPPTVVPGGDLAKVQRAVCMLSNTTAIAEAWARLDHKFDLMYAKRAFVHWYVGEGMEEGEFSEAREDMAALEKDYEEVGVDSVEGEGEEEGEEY
Sequence of Tubulin (Sus scrofa) (P02554 whole entry, looked up): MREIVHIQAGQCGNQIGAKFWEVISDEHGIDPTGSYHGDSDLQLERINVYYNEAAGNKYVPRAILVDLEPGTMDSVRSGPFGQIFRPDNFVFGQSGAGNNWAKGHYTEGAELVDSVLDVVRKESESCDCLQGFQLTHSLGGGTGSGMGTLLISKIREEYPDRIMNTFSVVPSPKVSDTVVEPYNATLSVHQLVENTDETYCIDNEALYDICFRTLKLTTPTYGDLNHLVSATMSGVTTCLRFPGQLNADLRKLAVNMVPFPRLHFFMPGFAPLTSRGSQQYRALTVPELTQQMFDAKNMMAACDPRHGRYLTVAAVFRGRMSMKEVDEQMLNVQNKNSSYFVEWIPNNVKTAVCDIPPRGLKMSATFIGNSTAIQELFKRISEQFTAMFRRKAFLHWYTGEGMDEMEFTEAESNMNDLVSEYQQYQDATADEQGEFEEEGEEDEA

A549 [2] = experiment: Antitumor activity against human A549 cells xenografted in BALB/c mouse assessed as tumor growth inhibition at 10 mg/kg, ip administered every other day for 25 days; format: functional; details: A549, 600 h, time 25 day, read-out: TGI
A549 [3] = experiment: Antitumor activity against human A549 cells xenografted in BALB/c mouse assessed as tumor volume at 10 mg/kg, ip administered every other day for 25 days; format: functional; details: time 25 day
A549 [4] = experiment: Antitumor activity against human A549 cells xenografted in BALB/c mouse assessed as tumor weight at 10 mg/kg, ip administered every other day for 25 days; format: functional, organism-based; details: time 25.0 day
[5] = Toxicity in BALB/c mouse xenografted with human A549 cells assessed as change in body weight at 10 mg/kg, ip administered every other day for 25 days; format: organism-based; details: in vivo, 600 h, time 25 day
A549 [6] = experiment: Antiproliferative activity against human A549 cells expressing lentivirus RNAi VTI-96658 assessed as inhibition of cell growth measured after 48 hrs by MTT assay; format: functional, cell-based
A549 [7] = experiment: Antiproliferative activity against human A549 cells expressing lentivirus RNAi VTI-96659 assessed as inhibition of cell growth measured after 48 hrs by MTT assay; format: functional, cell-based
A549 [8] = experiment: Antiproliferative activity against human A549 cells expressing lentivirus RNAi VTI-96660 assessed as inhibition of cell growth measured after 48 hrs by MTT assay; format: functional, cell-based

Structure (SMILES)	pIC50 (SK-OV-3)	pIC50 (HepG2)	pIC50 (MDA-MB-231)	pIC50 (HeLa)	pIC50 (B16-F10)	pIC50 (A2780/Taxol)	pIC50 (A2780)	pIC50 (A549 [1])	inhibition (Tubulin (Sus scrofa))	inhibition in vivo at 10 mg/kg (A549 [2]) [%]	Activity (A549 [3]) [%]	Activity (A549 [4])	Activity [5]	Activity (A549 [6])	Activity (A549 [7])	Activity (A549 [8])
COc1cc2c(c(OC)c1OC)-c1ccc(OC)c(=O)cc1[C@@H](NC(C)=O)CC2 [COLCHICINE]	8.14	7.08	7.17	7.47	7.53	6.60	7.70									
CC(=O)O[C@H]1C(=O)[C@@]2(C)[C@H]([C@H](OC(=O)c3ccccc3)[C@]3(O)C[C@H](OC(=O)[C@H](O)[C@@H](NC(=O)c4ccccc4)c4ccccc4)C(C)=C1C3(C)C)[C@]1(OC(C)=O)CO[C@@H]1C[C@@H]2O [PACLITAXEL]	7.46	8.60	8.96		< 6.00	4.75		8.42	inactive	48.6	46.53	Active	Non-Toxic			
O=C(Nc1cccc(Nc2cc(Nc3cccc(C(F)(F)F)c3)ncn2)c1)C1CC1	7.20	7.55	7.34	7.08	7.22			7.08	Active					Active	Active	Active
